Patent US10633386B2, “BET protein degraders” (THE REGENTS OF THE UNIVERSITY OF MICHIGAN, priority 2016, dated 2020)

Tested on: MDA-MB-231 xenograft
Assay: Efficacy of Cpd. No. 9 in MDA-MB-231 xenograft model
Type: in vivo, SCID mice
Details: MDA-MB-231 xenograft model in mice, i.v. (FIG. 7)
Experimental: Cpd. No. 9 was dissolved in 10% PCP [10% PEG400 (Sigma)+3% Cremophor (Sigma)+87% PBS (Gibco)]. The pH of the drug solutions were checked before use and adjusted with 0.5N NaOH to be between pH 6.5 and 8.0 for IV (intravenous) administration.
Human breast tumor cells, MDA-MB-231 (ATCC®) were maintained at 37° C., 95% air, 5% carbon dioxide in Improved MEM (Richter's Mod.) supplemented with 10% Fetal Bovine Serum, 100 units/ml of penicillin and […] (GIBCO™, Invitrogen Corp.) and passaged twice weekly.
Tumor cells for xenografts were harvested with Trypsin (0.05%)-EDTA (0.53 mM) (GIBCO™, Invitrogen Corp.), growth medium added and cells placed on ice. Cells were washed once with 1×PBS (GIBCO™, Invitrogen Corp.) and re-suspended in PBS. After washing in PBS, cells were re-suspended in an ice cold mixture of 1:1 PBS and Matrigel (BD Biosciences, Invitrogen Corp.) for a final Matrigel protein concentration of 5 mg/ml. Cells at 5×10^6 cells in 0.1 ml were injected subcutaneously (s.c.) into the flank region of each mouse using a 25 gauge needle. […]
The size of tumors growing in the mice was measured in two dimensions using calipers. […] During treatment, tumor volume and body weight were measured three times a week. After the treatment was stopped, tumor volume and body weight was measured at least once a week. […]

CCn1nc(C2CC2)cc1Nc1nc(C(=O)NCCCCNc2cccc3c2C(=O)N(C2CCC(=O)NC2=O)C3=O)nc2[nH]c3cc(-c4c(C)noc4C)c(OC)cc3c12 (stereo not shown) [Cpd. No. 9]
tumor growth: reduces tumor growth
